In patent US20200157151A1, “PEPTIDE COMPOUNDS, CONJUGATE COMPOUNDS AND USES THEREOF FOR TREATING INFLAMMATORY DISEASES” (TRANSFERT PLUS, S.E.C., priority 2017, published 2020):
Entries after “also recorded” stand apart in the source; their conditions may differ.

What was measured:
[1] = tested on: TNF-α-induced COX-2 expression in human HT-29 colon cancer cells; settings: 2 h pre-treatment, 10 ng/mL TNF-α 24 h
Method: Cells were pre-treated for 2 h with indicated compounds in serum-free medium before the addition of 10 ng/mL TNF-α for 24 h. Cells were lysed and the levels protein expression of COX-2 were monitored by immunoblotting. […] For each sample, the COX-2 level was corrected for GAPDH (a loading control) and normalized to those seen in TNF-α control (value=100%).
Cells were pre-treated for 2 h with indicated compounds in serum-free medium before the addition of 10 ng/mL TNF-α for 24 h. Cells were lysed and the protein expression levels of COX-2 were monitored by immunoblotting. […] For each sample, the COX-2 level was corrected for GAPDH (a loading control) and normalized to those seen in TNF-α control (value=100%).

[2] = Stability at room temperature followed by absorbance over time; settings: FIG. 11
From the text: FIG. 11 is a graph showing absorbance of Curcumin conjugates and free Curcumin.

[3] = tested on: human HT-29 colorectal cancer cells; assay: Time-course uptake by flow cytometry (cell-associated fluorescence); type: cell-based; settings: 5 μM, 37° C., HT-29 cells, FIG. 4B
Method: FIG. 4 is a series of charts illustrating higher and sustained uptake of KBC-201 (FIG. 4A). At the same concentration (5 μM), KBC-201 generates about half the fluorescence compared to free curcumin (Ex.: 488 nm, Em.: 530 nm) (FIG. 4B). Time-course uptake of KBC-201 (full line) and free curcumin (dotted line) in human HT-29 colorectal cancer cells. HT-29 cells were incubated at 37° C. with 5 μM of KBC-201 or curcumin at various times, trypsinized, washed, and cell-associated fluorescence uptake was quantified using a BD Accuri™ C6 flow cytometer.
(§1) The uptake of Curcumin conjugate or free Curcumin was measured as a function of time in human HT-29 colon cancer cells (FIG. 4). […] Indeed, the Curcumin conjugate (KBC-201) is less fluorescent by about 2-3 folds when compared to free Curcumin. […] The uptake of both KBC-201 and free Curcumin was next measured in the presence of Sortilin ligands (FIG. 5B). […] Taken together, data of the pharmacological inhibition using Sortilin ligands and the silencing of Sortlin expression confirm that the Curcumin conjugate is internalized via a Sortilin-dependent mechanism.

[4] = tested on: TNF-α-induced NFκB phosphorylation in human MDA-MB231 breast cancer cells; assay: Inhibition of TNF-α-induced NFκB phosphorylation in MDA-MB231 cells; type: cell-based; settings: 24 h pre-treatment, 100 ng/mL TNF-α 5 min
From the text: FIG. 9A) Immunodetection of phosphorylated NFκB by TNF-α is shown.
(§2) FIGS. 9 and 10 are other examples of the Curcumin conjugate (KBC-201)'s effect on the TNF-α-induced signaling pathways in two other cancer cell models.
Results presented in FIGS. 18A and 18B show now that the peptide alone (KBP-201) can reduce the TNF-α-induced NFκB phosphorylation by about 30%.
In FIG. 18A, immunodetection of NFκB phosphorylation by TNF-α is shown.

[5] = tested on: TNF-α-induced IκB phosphorylation in human HT-29 colon cancer cells; assay: Inhibition of TNF-α-induced IκB phosphorylation in HT-29 cells; type: cell-based; settings: 24 h pre-treatment, 100 ng/mL TNF-α 5 min
From the text: FIG. 8A) Immunodetection of IκB phosphorylation by TNF-α is shown.
One of the inflammatory pathways induced by TNF-α leads to the phosphorylation of IkB (FIG. 1), a key protein in inflammation. As expected, the addition of TNF-α to human HT-29 colon cancer cells triggered the phosphorylation of IkB (pIkB) (FIG. 8).
One of the inflammatory pathways induced by TNF-α leads to the phosphorylation IkB (see FIG. 1), a key protein in inflammation. It was observed that the addition of TNF-α to human HT-29 colon cancer cells triggered the phosphorylation of IkB (pIkB) (FIGS. 17A and 17B).

[6] = tested on: TNF-α-induced IκB phosphorylation in human SKOV3 ovarian cancer cells; assay: Inhibition of TNF-α-induced IκB phosphorylation in SKOV3 cells; type: cell-based; settings: 24 h pre-treatment, 100 ng/mL TNF-α 5 min, SKOV3, FIG. 10
From the text: FIG. 10A) Immunodetection of IκB phosphorylation by TNF-α is shown.
as §2

Sortilin receptor = biological target: T1, Sortilin receptor (Homo sapiens, UniProt Q99523); assay: Sortilin-mediated uptake in HT-29 cells (siRNA silencing and competition with Sortilin ligands); type: cell-based; settings: 5 μM; for Uptake when Sortilin expression is reduced by siRNA: 2 h, 37° C., siSortilin vs siScrambled HT-29 cells, FIG. 5A; for Uptake in the presence of Sortilin ligands: excess free peptide (50 μM), neurotensin (10 μM) or progranulin (1 nM), HT-29 cells, FIG. 5B
T1 construct: Sortilin-deficient (siSortilin) HT-29 colorectal cancer cells; endogenous in cells; host or cells: HT-29 human colorectal cancer cells
T1 sequence (Q99523 78-831): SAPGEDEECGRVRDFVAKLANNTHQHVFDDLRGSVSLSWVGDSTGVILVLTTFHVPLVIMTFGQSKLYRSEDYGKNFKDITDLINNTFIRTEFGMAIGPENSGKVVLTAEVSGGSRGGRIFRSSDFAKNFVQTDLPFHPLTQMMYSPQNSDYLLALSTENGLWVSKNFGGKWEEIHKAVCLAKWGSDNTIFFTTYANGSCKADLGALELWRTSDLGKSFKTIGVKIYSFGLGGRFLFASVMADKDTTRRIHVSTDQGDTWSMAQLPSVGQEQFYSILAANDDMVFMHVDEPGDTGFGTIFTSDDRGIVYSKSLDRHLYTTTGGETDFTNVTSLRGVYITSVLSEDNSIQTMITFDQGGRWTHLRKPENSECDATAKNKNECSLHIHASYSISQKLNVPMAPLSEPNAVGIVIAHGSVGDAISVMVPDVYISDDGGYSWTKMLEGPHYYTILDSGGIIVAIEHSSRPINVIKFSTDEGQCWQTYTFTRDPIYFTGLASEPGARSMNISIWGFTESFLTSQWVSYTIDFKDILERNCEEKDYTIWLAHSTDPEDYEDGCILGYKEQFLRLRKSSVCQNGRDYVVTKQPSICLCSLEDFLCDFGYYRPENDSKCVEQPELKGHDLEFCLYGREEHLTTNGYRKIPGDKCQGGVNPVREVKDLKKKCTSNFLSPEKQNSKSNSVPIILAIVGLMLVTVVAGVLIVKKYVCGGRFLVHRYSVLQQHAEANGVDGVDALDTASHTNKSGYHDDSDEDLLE
Method: FIG. 5 is a series of charts showing Sortilin-mediated uptake of KBC-201 in human colorectal cancer cells, FIG. 5A) Uptake of 5 μM of KBC-201 or free curcumin were performed at 37° C. in control (siScrambled) or Sortilin-deficient (siSortilin) HT-29 colorectal cancer cells. After a 2 h incubation, cells were trypsinized to remove non-internalized products, washed 3-times with ice-cold PBS and cell-associated fluorescence was quantified using a BD Accuri™ C6 flow cytometer. […] Cell-associated fluorescence uptake was quantified using a BD Accuri™ C6 flow cytometer.
as §1

[7] = biological target: T2, Human recombinant Sortilin chimera protein (Homo sapiens, UniProt Q99523); assay: Surface plasmon resonance (Biacore) interaction with immobilized Sortilin; type: binding; settings: SPR, comparison between peptides and Sortilin ligands
T2 construct: unnamed fusion partner or tag ('chimera'); purchased R&D Systems 3154-ST
T2 sequence (Q99523 78-755 limits assumed): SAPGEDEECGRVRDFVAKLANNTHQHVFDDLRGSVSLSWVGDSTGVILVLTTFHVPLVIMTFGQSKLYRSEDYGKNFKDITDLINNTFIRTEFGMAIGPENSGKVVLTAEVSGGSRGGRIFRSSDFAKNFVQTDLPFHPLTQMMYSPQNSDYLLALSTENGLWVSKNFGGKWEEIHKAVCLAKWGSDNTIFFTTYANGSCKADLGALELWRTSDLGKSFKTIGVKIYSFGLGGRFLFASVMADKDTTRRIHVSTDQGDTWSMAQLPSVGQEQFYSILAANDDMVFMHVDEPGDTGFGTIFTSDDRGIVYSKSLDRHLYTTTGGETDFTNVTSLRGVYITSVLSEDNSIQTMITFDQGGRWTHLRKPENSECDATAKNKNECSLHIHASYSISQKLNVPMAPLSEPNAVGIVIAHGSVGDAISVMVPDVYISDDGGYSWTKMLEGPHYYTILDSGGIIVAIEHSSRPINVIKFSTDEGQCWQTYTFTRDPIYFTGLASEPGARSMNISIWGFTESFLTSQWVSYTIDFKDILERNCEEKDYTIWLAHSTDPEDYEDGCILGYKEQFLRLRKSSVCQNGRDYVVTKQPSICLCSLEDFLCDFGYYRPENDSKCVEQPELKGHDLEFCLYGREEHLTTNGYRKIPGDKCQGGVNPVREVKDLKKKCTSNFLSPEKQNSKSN
From the text: FIG. 12 is schematic representation of real time interaction analysis using Surface Plasmon Resonance (SPR) and a Biacore instrument.
Further tests were made so as to investigate interaction of the peptide compounds of the present disclosure with Sortilin. Such tests were made using real-time surface plasmon resonance (Biacore) (see FIG. 12).

Acetyl-GVRAK(curcumin)AGVRN(Nle)FK(curcumin)SESY [KBC-106]
Inhibition of TNFα-induced COX-2 expression, comparison of two conjugates ([1]; HT-29, FIG. 7): more potent than free Curcumin
Stability (absorbance over time) [2]: more stable

Acetyl-YK(curcumin)SLRRK(curcumin)APRWDAPLRDPALRQLL (YKSLRRKAPRWDAPLRDPALRQLL) [KBC-201]
Uptake over time (cell-associated fluorescence) [3]: higher and sustained uptake over time
Inhibition of TNFα-induced COX-2 expression ([1]; HT-29, FIG. 6, compared to free Curcumin): stronger inhibition
Stability (absorbance over time) [2]: more stable
Antagonism of TNF-α-induced phosphorylation of pro-inflammatory proteins (NFκB) ([4]; MDA-MB231, FIGS. 9 and 18): more potent than free Curcumin
Inhibition of TNF-α-induced IkB phosphorylation ([5]; HT-29, FIGS. 8 and 17, compared to Curcumin): stronger inhibition
Antagonism of TNF-α-induced phosphorylation of pro-inflammatory proteins (IκB) [6]: more potent than free Curcumin
Uptake when Sortilin expression is reduced by siRNA (Sortilin receptor): strongly inhibited; also recorded: reduces KBC-201 uptake
Uptake in the presence of Sortilin ligands (Sortilin receptor): inhibited the uptake; also recorded: inhibit the uptake of KBC-201

CC(=O)N[C@@H](Cc1ccc(O)cc1)C(=O)N[C@@H](CCCCN)C(=O)N[C@@H](CO)C(=O)N[C@@H](CC(C)C)C(=O)N[C@@H](CCCNC(=N)N)C(=O)N[C@@H](CCCNC(=N)N)C(=O)N[C@@H](CCCCN)C(=O)N[C@@H](C)C(=O)N1CCC[C@H]1C(=O)N[C@@H](CCCNC(=N)N)C(=O)N[C@@H](Cc1c[nH]c2ccccc12)C(=O)N[C@@H](CC(=O)O)C(=O)N[C@@H](C)C(=O)N1CCC[C@H]1C(=O)N[C@@H](CC(C)C)C(=O)N[C@@H](CCCNC(=N)N)C(=O)N[C@@H](CC(=O)O)C(=O)N1CCC[C@H]1C(=O)N[C@@H](C)C(=O)N[C@@H](CC(C)C)C(=O)N[C@@H](CCCNC(=N)N)C(=O)N[C@@H](CCC(N)=O)C(=O)N[C@@H](CC(C)C)C(=O)N[C@@H](CC(C)C)C(=O)O [KBP-201]
Affinity for Sortilin, in words [7]: better affinity for Sortilin than Neurotensin
Affinity for Sortilin, in words ([7]; listed as KB-P201): better affinity
Reduction of TNF-α-induced NFκB phosphorylation ([4]; MDA-MB231, FIG. 18): about 30%
Reduction of TNF-α-induced phosphorylation of IkB, maximal effect ([5]; HT-29, FIG. 17, at a lower concentration than Curcumin): 40%

COc1cc(/C=C/C(=O)CC(=O)/C=C/c2ccc(O)c(OC)c2)ccc1O [Curcumin, reference compound]
Uptake over time (cell-associated fluorescence) ([3]; listed as free Curcumin): transient and low intracellular accumulation
Uptake over time (cell-associated fluorescence) ([3]; listed as free curcumin): transient uptake
Stability (absorbance over time) [2]: decreased more rapidly over time
Uptake when Sortilin expression is reduced by siRNA (Sortilin receptor; listed as free Curcumin): unaffected
Uptake when Sortilin expression is reduced by siRNA (Sortilin receptor; listed as free curcumin): not that of free curcumin
Uptake in the presence of Sortilin ligands (Sortilin receptor; listed as free Curcumin): unaffected by none of them
Uptake in the presence of Sortilin ligands (Sortilin receptor; listed as free curcumin): not that of free curcumin
